The test system of assay [1] is LNCaP (with PTEN-null, prostate tumor cell line). The experiment in a line: Cell-based viability assay (trypan blue exclusion) in LNCaP cells. To be noted: 72 hours treatment, read-out: LNCaP (with PTEN-null, prostate tumor cell line), IC50 (nM) (using cell trypan blue exclusion assay to detect the cell viability). As for the experimental part: 1. Cell-Based Assays: Cells were seeded in 24-well plates with a concentration of 10×10^5 cells/mL/well, and treated with the designated agents in the next day. After 72 hours treatment, cells were harvested and stained using the trypan blue exclusion method and measured using the TC-10™ automated cell counter (Bio-rad).

In assay [2] the test system is downstream targets of PI3K/mTOR in T47D (with PIK3CA mutation, breast tumor cell line). In words: Western blot detection of downstream targets of PI3K/mTOR in T47D cells. Type of assay: cell-based. The note with it: read-out: T47D (with PIK3CA mutation, breast tumor cell line), IC50 (nM) (using Westin blot to detect the downstream targets of PI3K/mTOR). The method, then: a. Harvest Cells and Run Cell Extracts on a SDS-PAGE Gel
Cells were harvested bytrypsinization and centrifugation at 500 rpm for 5 min and the supernatant was removed. Cell pellet was resuspended with appropriate volume of 1× lysis buffer (10× lysis buffer from Cell Signaling Technology, Catalog #9803, Boston, Mass.) containing protease inhibitors (Protease Inhibitor Cocktail Tablets, Roche, cat#11 697 498 001 and PMSF, NaF, Na3VO3, Leupeptin and pepstatin A), then directly sonicated the suspension for 5 seconds. Protein concentration was measured using Pierce BAC protein assay kit (catalog #23227). The protein sample was read with EL800 of Bio-TEK at […] wave length and the concentration was calculated. 60 ug protein of each sample was loaded on an 8-15% SDS-PAGE and run at 120V for an appropriate period till the dye front reached the bottom of the gel. […]
b. Transfer the Protein from the Gel to a Membrane
Placed a cassette using pre-wet Watman paper(bio-rad, catalog #1703932), gel and membrane (PVDF membrane with pre-soak in methanol for 3 min, then equilibrated in transfer buffer for 5 min), and performed the transfer using bio-rad transfer system at 100v for 1.5 hr at cool room.
Removed the membrane from the transfer apparatus and placed it in the blocking buffer [5% non-fat dry milk in 1×TBS-T containing NaCl 8 g, Tris-Cl 2.37 g, TrisBase 0.6 g in 1 liter of water (pH 7.6) and 1 ml of Tween-20]. Incubated the membrane in the blocking buffer on a shaker for 0.5-1 hr at room temperature.
Diluted the primary antibody at 1:1000 using TBS-T containing 5% non-fat dry milk, and incubated the membrane in the primary antibody solution on a shaker overnight at 4° C. Then removed the primary antibody solution, and washed the membrane with 1×TBS-T 3 times for 10 min each time. e. Secondary Antibody, Substrate Addition and Film Explosure
Diluted the second antibody (cell signaling technology cat#7076 anti-mouse IgG, HRP-linked antibody, or cat#7074, anti-rabbit IgG, HRP-linked antibody) at 1:3000 using TBS-T containing 5% non-fat dry milk. Decanted the wash buffer and incubated the membrane in the prepared secondary antibody solution on shaker for 2 hr at room temperature. Decanted the secondary antibody solution and washed thoroughly with 1×TBS-T for 3 times for 10 min each time. Prepared for substrate solution: luminal/enhancer solution mix with stable peroxide solution (Amersham ECL Plus™ Western Blotting Detection Reagents. Cat#: RPN2132). Total amount of substrate solution needed was approximate 2 ml per membrane. Placed the membrane with the protein side up on a flat Saran wrap, and dropped the prepared substrate solution over the membrane, and incubated the membrane for 2 minutes. […]
A general note: In western blotting, separated proteins are transferred to a membrane and probed.

For the compound `COc1ncc(-c2cc3c(C)nc(N)nc3n([C@H]3CC[C@H](OCCO)CC3)c2=O)cc1NS(=O)(=O)c1ccccc1` [Example 1, N-(5-(2-amino-8-(trans-4-(2-hydroxyethoxy)-cyclohexyl)-4-methyl-7-oxo-7,8-dihydropyrido[2,3-d]pyrimidin-6-yl)-2-methoxypyridin-3-yl)benzenesulfonamide], the IC50 in assay [1] is 35 nM; in assay [2], 12 nM.

Consider `COc1ncc(-c2cc3c(C)nc(N)nc3n([C@H]3CC[C@H](OCCO)CC3)c2=O)cc1NS(C)(=O)=O` [Example 2, N-(5-(2-amino-8-(trans-4-(2-hydroxyethoxy)cyclohexyl)-4-methyl-7-oxo-7,8-dihydropyrido[2,3-d]pyrimidin-6-yl)-2-methoxypyridin-3-yl)methanesulfonamide], for which the IC50 in assay [1] came to 150 nM.

Regarding `CCS(=O)(=O)Nc1cc(-c2cc3c(C)nc(N)nc3n([C@H]3CC[C@H](OCCO)CC3)c2=O)cnc1OC` [Example 3, N-(5-(2-amino-8-(trans-4-(2-hydroxyethoxy)cyclohexyl)-4-methyl-7-oxo-7,8-dihydropyrido [2,3-d]pyrimidin-6-yl)-2-methoxypyridin-3-yl)ethanesulfonamide], the IC50 in assay [1] stood at 140 nM.

On to `COc1ncc(-c2cc3c(C)nc(N)nc3n([C@H]3CC[C@H](OCCO)CC3)c2=O)cc1NS(=O)(=O)C1CC1` [Example 4, N-(5-(2-amino-8-(trans-4-(2-hydroxyethoxy)cyclohexyl)-4-methyl-7-oxo-7,8-dihydropyrido[2,3-d]pyrimidin-6-yl)-2-methoxypyridin-3-yl)cyclopropanesulfonamide], for which, in assay [1], the IC50 came to 130 nM.

Consider `COc1ncc(-c2cc3c(C)nc(N)nc3n([C@H]3CC[C@H](OCCO)CC3)c2=O)cc1NS(=O)(=O)c1ccc(F)cc1` [Example 5, N-(5-(2-amino-8-(trans-4-(2-hydroxyethoxy)cyclohexyl)-4-methyl-7-oxo-7,8-dihydropyrido[2,3-d]pyrimidin-6-yl)-2-methoxypyridin-3-yl)-4-fluorobenzenesulfonamide], for which the IC50 in assay [1] worked out at 55 nM.

Take `COc1ncc(-c2cc3c(C)nc(N)nc3n([C@H]3CC[C@H](OCCO)CC3)c2=O)cc1NS(=O)(=O)c1c(F)cccc1F` [Example 6, N-(5-(2-amino-8-(trans-4-(2-hydroxyethoxy)cyclohexyl)-4-methyl-7-oxo-7,8-dihydropyrido[2,3-d]pyrimidin-6-yl)-2-methoxypyridin-3-yl)-2,6-difluorobenzenesulfonamide]: the IC50 in assay [1] was determined as 60 nM.

Regarding `COc1ccc(S(=O)(=O)Nc2cc(-c3cc4c(C)nc(N)nc4n([C@H]4CC[C@H](OCCO)CC4)c3=O)cnc2OC)cc1` [Example 7, N-(5-(2-amino-8-(trans-4-(2-hydroxyethoxy)cyclohexyl)-4-methyl-7-oxo-7,8-dihydropyrido[2,3-d]pyrimidin-6-yl)-2-methoxypyridin-3-yl)-4-methoxybenzenesulfonamide], the values for the IC50 in assay [1] and in assay [2] were 40 nM and 12 nM, respectively.

Take `COc1ncc(-c2cc3c(C)nc(N)nc3n([C@H]3CC[C@H](OCCO)CC3)c2=O)cc1NS(=O)(=O)c1ccc(C)cc1` [Example 8, N-(5-(2-amino-8-(trans-4-(2-hydroxyethoxy)cyclohexyl)-4-methyl-7-oxo-7,8-dihydropyrido[2,3-d]pyrimidin-6-yl)-2-methoxypyridin-3-yl)-4-methylbenzenesulfonamide]: the IC50 was 45 nM in assay [1] and 15 nM in assay [2].

As to `COc1ccc(-c2cc3c(C)nc(N)nc3n(C3CCC(OCCO)CC3)c2=O)cn1` (stereo not shown) [PF-1502, reference compound], the IC50 turned out to be 75 nM in assay [1] and 85 nM in assay [2].

For the origin of these results see patent US20140038991A1, “Protein Kinase Inhibitors” (Astar Biotech LLC, priority 2012, published 2014).
